Laboratory results from BindingDB's records for doi:10.7270/Q22R3Q30 (Nmmlsc, 2009).

Biological target: Cell division control protein 42 homolog (Homo sapiens, UniProt P60953)
Test: Cdc42 activated mutant GTP-binding inhibitors, SAR follow-up, biochemical, bead-based multiplex flow cytometry, additional SAR set (AID 2021)

Chain of Cell division control protein 42 homolog (P60953 whole entry): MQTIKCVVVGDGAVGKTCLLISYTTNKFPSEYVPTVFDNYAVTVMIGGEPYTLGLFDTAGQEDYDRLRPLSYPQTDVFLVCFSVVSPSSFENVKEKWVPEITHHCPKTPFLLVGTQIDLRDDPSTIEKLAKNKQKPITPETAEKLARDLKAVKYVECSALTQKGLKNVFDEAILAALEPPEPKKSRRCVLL

SMILES | Ki [µM]
O=C1N=c2c(Br)cccc2=C1c1[nH]c2ccccc2c1NO [7-bromanyl-3-[3-(oxidanylamino)-1H-indol-2-yl]indol-2-one] | 8.52
O=C1NC(=O)/C(=C2/C(=O)Nc3ccccc32)N1 | 0.81
